Source: PMC6556873, “Rapid Covalent-Probe Discovery by Electrophile-Fragment Screening” (Journal of the American Chemical Society, 2019)
Read-outs that look alike come from different tables or passages of the source.

Legend:
[1] = in vitro; design: species or system CCD841, HEK293; settings: human, hb2 cells, read-out: HB-2 Cells Viability (%)
[2] = in vitro; design: species or system HB2, CCD841; settings: human, hek293 cells
[3] = in vitro; design: species or system HB2, HEK293; settings: human, ccd841 cells
[4] = molecular target: T1, BSA (Bos taurus, UniProt P02769); design: Intact protein LC/MS covalent labelling, fragments in pools of five, 200 uM each, 4 °C; settings: 24 h, 4 °C, pool of five; 200 µM; covalent
T1 construct: gene ALB
T1 sequence (P02769 whole entry, the tested form may be a part): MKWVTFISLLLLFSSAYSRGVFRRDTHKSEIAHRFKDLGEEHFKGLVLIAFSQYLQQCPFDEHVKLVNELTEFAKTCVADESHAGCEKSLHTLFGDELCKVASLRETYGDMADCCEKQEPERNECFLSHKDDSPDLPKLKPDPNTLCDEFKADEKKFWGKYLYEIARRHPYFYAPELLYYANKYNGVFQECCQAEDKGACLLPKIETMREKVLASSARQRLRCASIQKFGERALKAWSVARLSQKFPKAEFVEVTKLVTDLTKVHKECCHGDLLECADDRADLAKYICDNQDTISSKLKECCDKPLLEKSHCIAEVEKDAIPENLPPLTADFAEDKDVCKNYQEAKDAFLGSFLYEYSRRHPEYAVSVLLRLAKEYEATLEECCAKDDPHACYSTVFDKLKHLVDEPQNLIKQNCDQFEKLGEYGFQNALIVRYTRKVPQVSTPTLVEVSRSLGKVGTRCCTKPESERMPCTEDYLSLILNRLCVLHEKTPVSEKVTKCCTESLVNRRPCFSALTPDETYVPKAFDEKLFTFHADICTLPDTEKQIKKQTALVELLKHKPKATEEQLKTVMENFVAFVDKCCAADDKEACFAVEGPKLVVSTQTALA

[5] = molecular target: T2, PCAF (Homo sapiens, UniProt Q92831); design: Intact protein LC/MS covalent labelling, fragments in pools of five, 200 uM each, 4 °C; settings: 24 h, 4 °C, pool of five; 200 µM; covalent
T2 construct: gene KAT2B
T2 sequence (Q92831 whole entry, the tested form may be a part): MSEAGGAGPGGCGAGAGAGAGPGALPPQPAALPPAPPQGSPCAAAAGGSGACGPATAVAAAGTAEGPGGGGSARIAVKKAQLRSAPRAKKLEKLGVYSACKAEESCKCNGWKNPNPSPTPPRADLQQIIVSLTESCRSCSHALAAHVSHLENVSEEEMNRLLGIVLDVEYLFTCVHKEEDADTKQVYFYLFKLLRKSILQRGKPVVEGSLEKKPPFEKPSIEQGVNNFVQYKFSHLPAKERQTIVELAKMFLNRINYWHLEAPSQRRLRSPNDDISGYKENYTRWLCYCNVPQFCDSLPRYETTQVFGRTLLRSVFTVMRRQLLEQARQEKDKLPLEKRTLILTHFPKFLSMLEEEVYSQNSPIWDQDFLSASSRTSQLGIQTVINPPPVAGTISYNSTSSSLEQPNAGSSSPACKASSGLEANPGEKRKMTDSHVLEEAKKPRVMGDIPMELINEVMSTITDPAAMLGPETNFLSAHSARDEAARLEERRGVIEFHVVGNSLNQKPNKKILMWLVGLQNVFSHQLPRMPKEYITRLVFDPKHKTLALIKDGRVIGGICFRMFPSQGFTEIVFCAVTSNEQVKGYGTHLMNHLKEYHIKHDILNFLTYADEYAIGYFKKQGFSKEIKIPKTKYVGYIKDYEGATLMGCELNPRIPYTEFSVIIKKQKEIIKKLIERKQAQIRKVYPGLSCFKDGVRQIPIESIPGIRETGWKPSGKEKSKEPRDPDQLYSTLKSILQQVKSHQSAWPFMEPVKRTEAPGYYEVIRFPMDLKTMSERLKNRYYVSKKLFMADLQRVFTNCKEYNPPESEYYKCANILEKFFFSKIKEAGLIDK

[6] = molecular target: T3, OTUB2 (OTUB2A) (Homo sapiens, UniProt Q96DC9); design: Intact protein LC/MS covalent labelling, fragments in pools of five, 200 uM each, 4 °C; settings: 24 h, 4 °C, pool of five; 200 µM; covalent
T3 construct: full length residues 1-234, E. coli BL21(DE3)-R3, His tag removed by TEV, construct 27312 Da
T3 sequence (Q96DC9 1-234): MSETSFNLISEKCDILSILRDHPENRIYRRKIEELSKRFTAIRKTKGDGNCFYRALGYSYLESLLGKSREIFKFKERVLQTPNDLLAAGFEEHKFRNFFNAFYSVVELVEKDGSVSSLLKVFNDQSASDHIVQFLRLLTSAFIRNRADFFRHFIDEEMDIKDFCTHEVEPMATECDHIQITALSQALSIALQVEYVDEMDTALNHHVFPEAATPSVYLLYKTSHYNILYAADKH

[7] = molecular target: T4, NUDT7 (Homo sapiens, UniProt P0C024); design: Intact protein LC/MS covalent labelling, fragments in pools of five, 200 uM each, 4 °C; settings: 24 h, 4 °C, pool of five; 200 µM; covalent
T4 construct: residues 14-235, E. coli, pNIC28-Bsa4, N-terminal His6 tag removed by TEV, construct 26672 Da
T4 sequence (P0C024 14-235): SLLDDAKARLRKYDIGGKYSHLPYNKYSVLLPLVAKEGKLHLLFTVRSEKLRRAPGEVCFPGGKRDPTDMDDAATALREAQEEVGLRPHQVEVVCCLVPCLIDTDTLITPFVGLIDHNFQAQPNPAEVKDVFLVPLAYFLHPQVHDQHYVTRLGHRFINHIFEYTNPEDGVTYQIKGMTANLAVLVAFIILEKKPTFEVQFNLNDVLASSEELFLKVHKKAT

[8] = molecular target: T5, NNMT (hNNMT) (Homo sapiens, UniProt P40261); design: Intact protein LC/MS covalent labelling, fragments in pools of five, 200 uM each, 4 °C; settings: 24 h, 4 °C, pool of five; 200 µM; covalent
T5 construct: wild type, N-terminal His6 tag kept (no cleavage described), E. coli, construct 31248 Da
T5 sequence (P40261 1-264): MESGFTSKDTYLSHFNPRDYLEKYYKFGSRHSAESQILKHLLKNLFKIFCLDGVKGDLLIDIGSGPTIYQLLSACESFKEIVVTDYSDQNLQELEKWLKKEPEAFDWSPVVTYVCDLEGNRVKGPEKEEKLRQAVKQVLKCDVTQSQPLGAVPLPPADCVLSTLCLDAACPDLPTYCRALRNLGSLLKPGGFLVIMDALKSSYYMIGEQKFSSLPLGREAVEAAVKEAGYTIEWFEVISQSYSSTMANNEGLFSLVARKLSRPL

Row | SMILES | BSA [4] | PCAF [5] | OTUB2 [6] | NUDT7 [7] | NNMT [8] | viability at 48 h, 10 µM [1] [%] | viability at 48 h, 10 µM [2] [%] | viability at 48 h, 10 µM [3] [%]
1 | O=C(CCl)Nc1nc(-c2cccs2)cs1 [PCM-0102784] | 0 | 0 | 0.07 | 0.77 | 0.71 | 39.8 | 41.3 | 84.9
2 | O=C(Nc1ccccc1O)C1CCN(C(=O)CCl)CC1 [PCM-0102389] | 0 | 0 | 0.14 | 0.1 | 0 | 35.7 | 16 | 63
3 | C=CC(=O)N(C)C1CCCc2nc(CC)sc21 (stereo not shown) [PCM-0102483] | 0 | 0 | 0 | 0 | 0 | 98.1 | 97.3 | 103
4 | C=CC(=O)N1CCCc2c([nH]c3c(F)cccc23)C1 [PCM-0102767] | 0.1 | 0 | 0 | 0 | 0 | 89.2 | 96 | 96.6
5 | CN(CC(=O)N1CCOCC1)C(=O)CCl [PCM-0102743] | 0 | 0 | 0 | 0 | 0 | 101 | 97.6 | 99
6 | C=CC(=O)NC1CCC(c2nc(C)no2)CC1 (stereo not shown) [PCM-0102521] | 0 | 0 | 0.35 | 0 | 0 | 101 | 83 | 116
7 | O=C(CCl)Nc1nnn[nH]1 [PCM-0102778] | 0 | 0 | 0.3 | 0 | 0 | 102 | 120 | 102
8 | CC(NC(=O)CCl)c1ccc(F)cc1 (stereo not shown) [PCM-0102228] | 0 | 0 | 0.2 | 0.07 | 0 | 84.6 | 63.8 | 83.2
9 | C=CC(=O)Nc1ccc(C(=O)O)cc1 [PCM-0102271] | 0 | 0 | 0 | 0 | 0 | 111 | 95.1 | 94.2

More lines, main results first:

Row | BSA [4] | PCAF [5] | OTUB2 [6] | NUDT7 [7] | NNMT [8] | SMILES | viability at 48 h, 10 µM [1] [%] | viability at 48 h, 10 µM [2] [%] | viability at 48 h, 10 µM [3] [%]
10 | 0 | 0 | 0 | 0 | 0 | O=C(CCl)N=c1sccn1Cc1cccc2ccccc12 [PCM-0102842] | 8.4 | 5.2 | 4.2
11 | 0.18 | 0 | 0.14 | 0 | 0.23 | Cc1ccc(NC(=O)CCl)c(F)c1 [PCM-0103028] | 42.3 | 29 | 58.4
12 | 0 | 0 | 0.41 | 0 | 0 | N#Cc1cccc(C(=O)NNC(=O)CCl)c1 [PCM-0102857] | 103 | 102 | 82.6
13 | 0 | 0 | 0 | 0 | 0 | CC1(C)CCCN1C(=O)CCl [PCM-0103060] | 104 | 74.5 | 92.4
14 | 0 | 0 | 0.21 | 0 | 0 | O=C(CCl)NNC(=O)c1ccc([N+](=O)[O-])cc1 [PCM-0102885] | 91 | 92.9 | 83.3
